Source: US20210317140A1, “Heterocyclic Compounds and Methods of Use” (MEDIVATION TECHNOLOGIES, INC, priority 2013, published 2021)

Experiments:
ITK = biological target: T1, ITK (Homo sapiens, UniProt Q08881); assay: ITK kinase profiling (BTK protocol); type: biochemical; details: 10 dose IC50
T1 construct: purchased Reaction Biology Corporation
T1 sequence (Q08881 1-620): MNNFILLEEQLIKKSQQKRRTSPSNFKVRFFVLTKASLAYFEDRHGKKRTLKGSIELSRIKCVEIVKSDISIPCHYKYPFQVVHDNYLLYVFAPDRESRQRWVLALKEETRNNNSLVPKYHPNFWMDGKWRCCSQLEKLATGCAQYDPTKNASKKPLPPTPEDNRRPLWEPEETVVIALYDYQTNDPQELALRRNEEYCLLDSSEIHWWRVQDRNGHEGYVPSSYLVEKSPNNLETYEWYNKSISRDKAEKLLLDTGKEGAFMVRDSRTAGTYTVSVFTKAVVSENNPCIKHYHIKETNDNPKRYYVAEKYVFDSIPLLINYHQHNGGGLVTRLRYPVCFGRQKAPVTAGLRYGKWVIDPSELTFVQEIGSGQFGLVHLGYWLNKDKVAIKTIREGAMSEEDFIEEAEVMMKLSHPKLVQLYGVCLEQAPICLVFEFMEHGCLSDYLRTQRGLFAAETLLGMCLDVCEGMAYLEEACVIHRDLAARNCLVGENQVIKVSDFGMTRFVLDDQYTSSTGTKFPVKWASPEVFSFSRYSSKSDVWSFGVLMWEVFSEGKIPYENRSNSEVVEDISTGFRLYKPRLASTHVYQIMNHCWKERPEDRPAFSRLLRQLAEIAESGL
Procedure: BTK assay: In vitro profiling protein kinases was performed using the “HotSpot” assay platform. Briefly, specific kinase/substrate pairs along with required cofactors were prepared in reaction buffer. Compounds were prepared as 10 mM stock solutions in DMSO. Compounds were delivered into the reaction, followed 15-20 minutes later by addition of a mixture of ATP (Sigma, St. Louis Mo.) and ^33P ATP (Perkin Elmer, Waltham Mass.) to a final concentration of 10 μM. […] IC50 values and curve fits were obtained using Prism (GraphPad Software). Buffer Conditions: 20 mM Hepes (pH 7.5), 10 mM MgCl2, 1 mM EGTA, 0.02% Brij35, 0.02 mg/mL BSA, 0.1 mM Na3VO4, 2 mM DTT, 1% DMSO.

CD69+B220+ cells = assay: B cell activation assay (IgD-stimulated splenocytes, CD69+B220+ cells by FACS); type: cell-based; details: IgD 3 μg/mL, 4 h; for CD69 @ 100 nM (% Inh): 100 nM compound, mouse splenocytes
In short: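 Read-out is percent CD69+ among live B220+ cells by FACS after 4 h stimulation with 3 μg/mL IgD at 37 °C. Before stimulation, splenocytes from one female mouse (10^6 cells/mL) received 100 nM compound for 30 min.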

SUDHL6 cells = assay: Cell anti-proliferation assay ([3H] thymidine); type: cell-based; details: Homo sapiens, SU-DHL-6, IC50 range
Procedure: Compounds of the invention were profiled in a B-lymphocyte anti-proliferation assay using SUDHL6 cells. On Day 0, SUDHL cells (7,500) were plated in RPMI media with FBS medium in a 96-well plate. On Day 1, Compounds of the invention were charged on top of the plated cells with a 1% DMSO final concentration. On Day 3, [^3H] Thymidine was added at 100 nCi/well. On Day 4, the cells were harvested using a cell harvester on a GF/C filter mat and dried in a hot air oven. Cell readout was obtained using a scintillation counter, and the activity of the compound was determined as an IC50 value.

| IC50 (ITK) | SMILES | CD69 @ 100 nM (% Inh) (CD69+B220+ cells) | IC50 (CD69+B220+ cells; Mus musculus, Splenocyte) | IC50 (SUDHL6 cells) | CD69 @ 100 nM (% Inh) (CD69+B220+ cells; 0.1 µM) |
| --- | --- | --- | --- | --- | --- |
| > 100 µM | Nc1ncnc2c1c(-c1ccc(F)c(O)c1)nn2C1CCc2ccccc2C1 (single isomer, unassigned) [Compound No. 26a, 5-(4-amino-1-(1,2,3,4-tetrahydronaphthalen-2-yl)-1H-pyrazolo[3,4-d]pyrimidin-3-yl)-2-fluorophenol] | – | – | – | 16.07 ± 15.99 (n = 5) % Inh |
| 16.4 µM | Nc1ncnc2c1c(-c1cc(O)cc(F)c1)nn2C1CCc2ccccc2C1 (centres unmarked) [compound 6, 3-(4-amino-1-(1,2,3,4-tetrahydronaphthalen-2-yl)-1H-pyrazolo[3,4-d]pyrimidin-3-yl)-5-fluorophenol] | – | – | 1 to 10 µM | – |

| SMILES | IC50 (ITK) | CD69 @ 100 nM (% Inh) (CD69+B220+ cells) | IC50 (CD69+B220+ cells; Mus musculus, Splenocyte) | IC50 (SUDHL6 cells) | CD69 @ 100 nM (% Inh) (CD69+B220+ cells; 0.1 µM) |
| --- | --- | --- | --- | --- | --- |
| Nc1ncnc2c1c(-c1cc(O)cc(F)c1)nn2C1Cc2ccccc2C1 [compound 3, 3-(4-amino-1-(2,3-dihydro-1H-inden-2-yl)-1H-pyrazolo[3,4-d]pyrimidin-3-yl)-5-fluorophenol] | 46.9 µM | 77.66 ± 22.65 (n = 6) % Inh | 0.183 ± 0.172 µM | 1 to 10 µM | – |
